PMC10460844, “Real‐Time Monitoring of Multitarget Antimicrobial Mechanisms of Peptoids Using Label‐Free Imaging with Optical Diffraction Tomography” (Advanced Science, 2023)
≈ marks a conversion by molar mass, not a printed value. Where a name gives a salt, the structure may show the parent alone. Read-outs that look alike come from different tables or passages of the source. Square brackets hold non-standard residues; d marks the D form. Peptide text beside a SMILES is read from it. Gly(N(CH2)2(3-indolyl)) = O=C(O)CNCCc1c[nH]c2ccccc12; Nspe = C[C@H](NCC(=O)O)c1ccccc1; Nphe = O=C(O)CNCc1ccccc1; Nlys = NCCCCNCC(=O)O

What was measured:
S. aureus ATCC 25923 = format: cell-based, Staphylococcus aureus
Description: (§1) The antibacterial activity of the peptoids was evaluated against gram‐positive (Staphylococcus aureus, ATCC 25 923) and gram‐negative (Escherichia coli, ATCC 25 922) bacteria. […] The MIC of each peptoid was determined using a broth dilution assay. For each assay, the primary culture of either S. aureus or E. coli was grown overnight in cation‐adjusted Mueller Hinton broth 2 (MHB2) media at 37 °C with shaking. A secondary culture was prepared the next day, grown for 3–4 h, and then diluted in MHB2 media with a final concentration of 0.001% acetic acid and 0.02% bovine serum albumin to obtain a calculated optical density (OD) of 0.001. This corresponded to ≈2–5 × 10^5 colony‐forming units (CFU mL^−1) of bacteria. Using 96‐well polypropylene plates (Eppendorf, Hamburg, Germany), 100 µL of 2–5 × 10^5 CFU mL^−1 bacteria were added in triplicate for each peptoid. Each peptoid was assayed at six different concentrations in two‐fold serial dilutions. The maximum peptoid concentration was 25 µM. […] The MIC value determination was performed in triplicate. The MIC was defined as the lowest peptoid concentration that prevented turbidity during visual inspection.

rat erythrocytes = assay: Hemolysis assay; format: cell-based
Outline: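 Washed Sprague-Dawley rat erythrocytes (10% suspension in PBS pH 7.4) mixed with peptoids (0–100 µM), 60 min at 37 °C; supernatant A540 expressed as % of 1% Triton X-100 lysis. HC10/HC50 are concentrations giving 10%/50% hemolysis; Hmax is hemolysis at 100 µM.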

E. coli ATCC 25922 = format: cell-based, Escherichia coli
Description: as §1

[1] = Analytical reversed-phase HPLC elution (hydrophobicity); format: physicochemical; conditions: Table S1; analytical RP-HPLC, SunFire C18, water/ACN + 0.1% TFA, 5 to 100% B linear over 30 min, 1 mL/min, UV 220 nm; approximate comparison of hydrophobicity
Outline: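 Retention time (tR) reflects hydrophobicity, with detection at 220 nm. Elution used a 5–100% acetonitrile linear gradient over 30 min after a 2 min hold at 5%, then 5 min at 100%, with both phases containing 0.1% TFA. Column was an analytical C18 (4.6 × 250 mm, 5 μm) run at 1 mL/min.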

[2] = Table S2, broth dilution, MHB2, 37 °C 24 h, max 25 µM, mean of triplicate

| SMILES | MIC S. aureus ATCC25923 (S. aureus ATCC 25923; ATCC 25923) [µM] | Hmax (100 µM) (rat erythrocytes) [%] | HC10 (rat erythrocytes; red cells of rat) [µM] | HC50 (rat erythrocytes; red cells of rat) [µM] | MIC E. coli ATCC25922 (E. coli ATCC 25922; ATCC 25922) [µM] | MIC S. aureus ATCC25923 (S. aureus ATCC 25923; [2]) [µM] | HPLC elution [1] [% MeCN] | H max (100 µM) (rat erythrocytes) [%] | HC10 (rat erythrocytes; pH 7.4) [µM] | HC50 (rat erythrocytes; pH 7.4) [µM] | MIC E. coli ATCC25922 (E. coli ATCC 25922; [2]) [µM] |
| --- | --- | --- | --- | --- | --- | --- | --- | --- | --- | --- | --- |
| C[C@@H](c1ccccc1)N(CC(N)=O)C(=O)CN(C(=O)CN(CCCCN)C(=O)CN(C(=O)CN(CCc1c[nH]c2ccccc12)C(=O)CN(CCCCN)C(=O)CN(CCc1c[nH]c2ccccc12)C(=O)CN(C(=O)CN(CCCCN)C(=O)CN(C(=O)CN(C(=O)CNCCCCN)[C@@H](C)c1ccccc1)[C@@H](C)c1ccccc1)[C@@H](C)c1ccccc1)[C@@H](C)c1ccccc1)[C@@H](C)c1ccccc1 [15-HCl] | 3.1 | 33.4±9.7 | 50.4 | > 100 | 6.3 | – | – | – | – | – | – |
| C[C@@H](c1ccccc1)N(CC(=O)N(CCCCN)CC(=O)N(CCc1c[nH]c2ccccc12)CC(=O)N(CCc1c[nH]c2ccccc12)CC(N)=O)C(=O)CN(CCCCN)C(=O)CN(CCCCN)C(=O)CN(C(=O)CN(C(=O)CN(CCCCN)C(=O)CN(C(=O)CN(C(=O)CNCCCCN)[C@@H](C)c1ccccc1)[C@@H](C)c1ccccc1)[C@@H](C)c1ccccc1)[C@@H](C)c1ccccc1 [29-AcOH] (H-[Nlys][Nspe][Nspe][Nlys][Nspe][Nspe][Nlys][Nlys][Nspe][Nlys][Gly(N(CH2)2(3-indolyl))][Gly(N(CH2)2(3-indolyl))]-NH2) | 12.5 (≈ 23.3 µg/mL) | 5.2±0.2 | > 100 | > 100 | 6.3 (≈ 11.7 µg/mL) | – | – | – | – | – | – |
| C[C@@H](c1ccccc1)N(CC(=O)N(CCCCN)CC(=O)N(CCc1c[nH]c2ccccc12)CC(=O)N(CCc1c[nH]c2ccccc12)CC(N)=O)C(=O)CN(CCCCN)C(=O)CN(CCCCN)C(=O)CN(C(=O)CN(C(=O)CN(CCCCN)C(=O)CN(C(=O)CN(C(=O)CNCCCCN)[C@@H](C)c1ccccc1)[C@@H](C)c1ccccc1)[C@@H](C)c1ccccc1)[C@@H](C)c1ccccc1 [29-HCl] (H-[Nlys][Nspe][Nspe][Nlys][Nspe][Nspe][Nlys][Nlys][Nspe][Nlys][Gly(N(CH2)2(3-indolyl))][Gly(N(CH2)2(3-indolyl))]-NH2) | 12.5 | 4.3±0.3 | > 100 | > 100 | 12.5 | – | – | – | – | – | – |
| C[C@@H](c1ccccc1)N(CC(N)=O)C(=O)CN(CCCCN)C(=O)CN(CCCCN)C(=O)CN(C(=O)CN(C(=O)CN(CCCCN)C(=O)CN(C(=O)CN(C(=O)CN(CCCCN)C(=O)CN(CCc1c[nH]c2ccccc12)C(=O)CN(CCc1c[nH]c2ccccc12)C(=O)CNCCCCN)[C@@H](C)c1ccccc1)[C@@H](C)c1ccccc1)[C@@H](C)c1ccccc1)[C@@H](C)c1ccccc1 [32-AcOH] | 6.3 (≈ 11.7 µg/mL) | 13.8±1.1 | 83.0 | > 100 | 6.3 (≈ 11.7 µg/mL) | – | – | – | – | – | – |
| C[C@@H](c1ccccc1)N(CC(N)=O)C(=O)CN(CCCCN)C(=O)CN(CCCCN)C(=O)CN(C(=O)CN(C(=O)CN(CCCCN)C(=O)CN(C(=O)CN(C(=O)CN(CCCCN)C(=O)CN(CCc1c[nH]c2ccccc12)C(=O)CN(CCc1c[nH]c2ccccc12)C(=O)CNCCCCN)[C@@H](C)c1ccccc1)[C@@H](C)c1ccccc1)[C@@H](C)c1ccccc1)[C@@H](C)c1ccccc1 [32-HCl] | 6.3 | 8.7±0.6 | > 100 | > 100 | 6.3 | – | – | – | – | – | – |
| C[C@@H](c1ccccc1)N(CC(=O)N(CCCCN)CC(=O)N(CC(=O)N(CC(=O)N(CCCCN)CC(=O)N(CC(=O)N(CC(=O)N(CCCCN)CC(N)=O)[C@@H](C)c1ccccc1)[C@@H](C)c1ccccc1)[C@@H](C)c1ccccc1)[C@@H](C)c1ccccc1)C(=O)CN(C(=O)CN(CCCCN)C(=O)CN(CCc1c[nH]c2ccccc12)C(=O)CNCCc1c[nH]c2ccccc12)[C@@H](C)c1ccccc1 [37-AcOH] (H-[Gly(N(CH2)2(3-indolyl))][Gly(N(CH2)2(3-indolyl))][Nlys][Nspe][Nspe][Nlys][Nspe][Nspe][Nlys][Nspe][Nspe][Nlys]-NH2) | 1.6 (≈ 3.04 µg/mL) | 98.9±8.0 | 12.5 | 26.0 | 6.3 (≈ 12 µg/mL) | – | – | – | – | – | – |
| C[C@@H](c1ccccc1)N(CC(=O)N(CCCCN)CC(=O)N(CC(=O)N(CC(=O)N(CCCCN)CC(=O)N(CC(=O)N(CC(=O)N(CCCCN)CC(N)=O)[C@@H](C)c1ccccc1)[C@@H](C)c1ccccc1)[C@@H](C)c1ccccc1)[C@@H](C)c1ccccc1)C(=O)CN(C(=O)CN(CCCCN)C(=O)CN(CCc1c[nH]c2ccccc12)C(=O)CNCCc1c[nH]c2ccccc12)[C@@H](C)c1ccccc1 [37-HCl] (H-[Gly(N(CH2)2(3-indolyl))][Gly(N(CH2)2(3-indolyl))][Nlys][Nspe][Nspe][Nlys][Nspe][Nspe][Nlys][Nspe][Nspe][Nlys]-NH2) | 3.1 | 86.6±5.7 | 14.4 | 56.5 | 6.3 | – | – | – | – | – | – |
| C[C@@H](c1ccccc1)N(CC(=O)N(CCCCN)CC(=O)N(CC(=O)N(CC(N)=O)Cc1ccccc1)Cc1ccccc1)C(=O)CN(CCCCN)C(=O)CN(CCCCN)C(=O)CN(C(=O)CN(C(=O)CN(CCCCN)C(=O)CN(C(=O)CN(C(=O)CNCCCCN)[C@@H](C)c1ccccc1)[C@@H](C)c1ccccc1)[C@@H](C)c1ccccc1)[C@@H](C)c1ccccc1 [peptoid 45] (H-[Nlys][Nspe][Nspe][Nlys][Nspe][Nspe][Nlys][Nlys][Nspe][Nlys][Nphe][Nphe]-NH2) | – | 4.5±0.2 | – | – | – | 25 (≈ 44 µg/mL) | 47.3 | 4.5 ± 0.2 | > 100 | > 100 | > 25 |
